Measurements as given in US20140378408A1, “NUCLEOSIDE 5'-PHOSPHOROTHIOATE ANALOGUES AND USES THEREOF” (BAR-ILAN UNIVERSITY, an Israeli University, priority 2012, published 2014).
Read-outs that look alike come from different tables or passages of the source.

Key:
human P2Y11-R = molecular target: T1, human P2Y11-R (Homo sapiens, UniProt Q96G91); assay: [Ca^2+]i response of 1321N1 astrocytoma cells expressing P2Y11-R GFP; type: cell-based
T1 construct: expressed in transfected cells; host or cells: 1321N1 astrocytoma cells
T1 sequence (Q96G91 1-374): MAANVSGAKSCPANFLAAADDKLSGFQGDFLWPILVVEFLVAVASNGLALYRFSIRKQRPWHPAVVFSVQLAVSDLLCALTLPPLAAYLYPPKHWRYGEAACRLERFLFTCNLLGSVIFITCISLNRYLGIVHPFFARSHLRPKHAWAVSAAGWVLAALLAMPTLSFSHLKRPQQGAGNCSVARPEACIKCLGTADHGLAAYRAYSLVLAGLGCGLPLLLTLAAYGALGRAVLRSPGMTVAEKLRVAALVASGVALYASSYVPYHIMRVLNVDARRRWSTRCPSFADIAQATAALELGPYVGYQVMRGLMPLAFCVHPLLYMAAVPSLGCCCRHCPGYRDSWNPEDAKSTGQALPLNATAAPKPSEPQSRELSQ

human NTPDase2 [1] = molecular target: T2, human NTPDase2 (Homo sapiens, UniProt Q9Y5L3); assay: Hydrolysis by human NTPDase2; type: in vitro ADME; details: for Hydrolysis by NTPDase2: 100 μM, 1 h, activity with 100 μM ATP = 100%
T2 construct: made in house; host or cells: COS-7 cells (transfected; protein extract)
T2 sequence (Q9Y5L3 1-495): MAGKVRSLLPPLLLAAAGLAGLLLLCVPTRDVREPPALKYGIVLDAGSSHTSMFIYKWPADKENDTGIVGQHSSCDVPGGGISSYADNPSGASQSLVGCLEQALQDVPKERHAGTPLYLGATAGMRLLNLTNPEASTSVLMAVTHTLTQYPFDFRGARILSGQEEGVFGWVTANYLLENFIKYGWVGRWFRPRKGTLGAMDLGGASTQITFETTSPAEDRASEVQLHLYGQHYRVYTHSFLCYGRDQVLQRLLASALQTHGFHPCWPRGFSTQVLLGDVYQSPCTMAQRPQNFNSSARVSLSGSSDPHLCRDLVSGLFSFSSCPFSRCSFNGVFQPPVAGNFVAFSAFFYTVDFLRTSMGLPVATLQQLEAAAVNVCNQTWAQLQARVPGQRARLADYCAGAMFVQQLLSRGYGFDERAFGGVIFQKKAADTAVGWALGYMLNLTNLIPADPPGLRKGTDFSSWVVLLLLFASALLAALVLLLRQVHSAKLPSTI

human NTPDase8 [2] = molecular target: T3, human NTPDase8 (Homo sapiens, UniProt Q5MY95); assay: Hydrolysis by human NTPDase8; type: in vitro ADME; details: for Hydrolysis by NTPDase8: 100 μM, 1 h, activity with 100 μM ATP = 100%
T3 construct: made in house; host or cells: COS-7 cells (transfected; protein extract)
T3 sequence (Q5MY95 1-495): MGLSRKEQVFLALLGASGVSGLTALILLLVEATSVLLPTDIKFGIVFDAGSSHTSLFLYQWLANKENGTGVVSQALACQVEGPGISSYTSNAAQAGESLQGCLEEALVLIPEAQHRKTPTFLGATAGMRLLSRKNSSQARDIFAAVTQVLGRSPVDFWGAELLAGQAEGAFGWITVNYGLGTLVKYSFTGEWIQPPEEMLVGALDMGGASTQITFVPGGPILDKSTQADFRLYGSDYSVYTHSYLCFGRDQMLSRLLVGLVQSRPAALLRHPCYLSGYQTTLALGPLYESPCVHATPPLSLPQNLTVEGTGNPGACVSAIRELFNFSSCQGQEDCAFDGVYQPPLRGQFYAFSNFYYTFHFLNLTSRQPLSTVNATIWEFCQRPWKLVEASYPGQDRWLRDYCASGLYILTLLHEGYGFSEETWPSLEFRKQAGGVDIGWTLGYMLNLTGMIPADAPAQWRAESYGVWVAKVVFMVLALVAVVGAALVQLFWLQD

human NTPDase2 [3] = molecular target: T2, human NTPDase2; assay: Inhibition of NTPDase2 activity; type: biochemical; details: for effect on human NTPDase2 activity: Table 5, ATP and analogue 100 μM, 100% activity = ATP alone; for inhibition of the hydrolysis of ATP by NTPDase2: analogue and ATP 100 μM
human NTPDase8 [4] = molecular target: T3, human NTPDase8; assay: Inhibition of NTPDase8 activity; type: biochemical; details: for effect on human NTPDase8 activity: Table 5, ATP and analogue 100 μM, 100% activity = ATP alone; for inhibition of the hydrolysis of ATP by NTPDase8: analogue and ATP 100 μM
human NTPDase1 = molecular target: T4, human NTPDase1 (Homo sapiens, UniProt P49961); assay: Hydrolysis by human NTPDase1; type: in vitro ADME; design: made in house; host or cells: COS-7 cells (transfected; protein extract); details: for Hydrolysis by NTPDase1: 100 μM, 1 h, activity with 100 μM ATP = 100%
T4 sequence (P49961 1-510): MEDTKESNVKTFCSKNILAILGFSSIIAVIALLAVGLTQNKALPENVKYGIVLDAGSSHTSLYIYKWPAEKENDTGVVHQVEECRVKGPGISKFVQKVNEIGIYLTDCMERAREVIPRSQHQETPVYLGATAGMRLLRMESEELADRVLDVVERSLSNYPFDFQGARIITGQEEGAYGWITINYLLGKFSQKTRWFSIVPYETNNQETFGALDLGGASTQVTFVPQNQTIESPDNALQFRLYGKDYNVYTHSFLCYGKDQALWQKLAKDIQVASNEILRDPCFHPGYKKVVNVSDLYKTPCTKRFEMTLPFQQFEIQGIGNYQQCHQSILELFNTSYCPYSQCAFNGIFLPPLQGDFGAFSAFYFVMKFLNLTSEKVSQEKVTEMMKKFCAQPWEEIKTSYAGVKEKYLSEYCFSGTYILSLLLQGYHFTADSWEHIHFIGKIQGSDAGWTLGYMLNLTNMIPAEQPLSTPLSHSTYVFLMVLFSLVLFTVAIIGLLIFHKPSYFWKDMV

human NTPDase3 = molecular target: T5, human NTPDase3 (Homo sapiens, UniProt O75355); assay: Hydrolysis by human NTPDase3; type: in vitro ADME; design: made in house; host or cells: COS-7 cells (transfected; protein extract); details: for Hydrolysis by NTPDase3: 100 μM, 1 h, activity with 100 μM ATP = 100%
T5 sequence (O75355 1-529): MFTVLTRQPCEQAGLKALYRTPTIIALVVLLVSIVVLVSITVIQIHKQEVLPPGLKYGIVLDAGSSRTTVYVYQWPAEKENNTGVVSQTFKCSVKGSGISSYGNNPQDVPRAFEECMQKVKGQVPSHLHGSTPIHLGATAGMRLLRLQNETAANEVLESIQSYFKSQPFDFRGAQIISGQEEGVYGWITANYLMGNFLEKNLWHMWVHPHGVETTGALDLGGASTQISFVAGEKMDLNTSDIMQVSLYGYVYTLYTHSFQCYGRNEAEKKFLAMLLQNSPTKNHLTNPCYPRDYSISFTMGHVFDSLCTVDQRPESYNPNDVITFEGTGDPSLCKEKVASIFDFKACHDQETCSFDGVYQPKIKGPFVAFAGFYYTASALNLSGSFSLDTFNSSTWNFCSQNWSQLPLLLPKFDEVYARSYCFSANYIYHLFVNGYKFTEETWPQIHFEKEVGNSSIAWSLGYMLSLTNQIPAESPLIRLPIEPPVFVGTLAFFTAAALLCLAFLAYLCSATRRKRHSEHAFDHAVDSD

Nc1ncnc2c1ncn2[C@@H]1O[C@H](COP(=O)(O)CP(=O)(O)OP(O)(O)=S)[C@@H](O)[C@H]1O [APCPP-γ-S, adenosine 5′-[Pγ-thio]-α,β-methylenetriphosphate]
EC50 (human P2Y11-R): > 10 µM
times more potent than ATP at the P2Y11 receptor (human P2Y11-R): 6.7 fold
EC50 (human P2Y11-R; agonist, read-out: EC50 at the P2Y11 receptor): 1 µM
Hydrolysis by NTPDase2 (human NTPDase2 [1]): 4.7 ± 0.2%
Hydrolysis by NTPDase8 (human NTPDase8 [2]): 5.2 ± 0.2%
effect on human NTPDase2 activity (human NTPDase2 [3]): 15.4 ± 0.7%
effect on human NTPDase8 activity (human NTPDase8 [4]): 0.50 ± 0.02%
Hydrolysis by NTPDase1 (human NTPDase1): 5.3 ± 0.2%
Hydrolysis by NTPDase3 (human NTPDase3): 4.8 ± 0.2%

Nc1ncnc2c1ncn2[C@@H]1O[C@H](COP(O)(=S)OP(=O)(O)C(Cl)(Cl)P(=O)(O)O)[C@@H](O)[C@H]1O (single isomer, unassigned; isomer a) [APPCCl2P-α-S (isomer A), adenosine 5′-[Pα-thio]-β,γ-(dichloromethylene)triphosphate]
agonism at the P2Y11-receptor (human P2Y11-R): not an agonist
Hydrolysis by NTPDase2 (human NTPDase2 [1]; listed as APPCCl2P-α-S A): 5.2 ± 0.1%
Hydrolysis by NTPDase8 (human NTPDase8 [2]; listed as APPCCl2P-α-S A): 4.3 ± 0.1%
effect on human NTPDase2 activity (human NTPDase2 [3]; listed as APPCCl2P-α-S A): 11.2 ± 0.5%
inhibition of the hydrolysis of ATP by NTPDase2 (human NTPDase2 [3]): did not interfere
effect on human NTPDase8 activity (human NTPDase8 [4]; listed as APPCCl2P-α-S A): 4.9 ± 0.2%
inhibition of the hydrolysis of ATP by NTPDase8 (human NTPDase8 [4]): did not interfere
Hydrolysis by NTPDase1 (human NTPDase1; listed as APPCCl2P-α-S A): 5.3 ± 0.2%
Hydrolysis by NTPDase3 (human NTPDase3; listed as APPCCl2P-α-S A): 5.2 ± 0.2%

Nc1ncnc2c1ncn2[C@@H]1O[C@H](COP(O)(=S)OP(=O)(O)C(Cl)(Cl)P(=O)(O)O)[C@@H](O)[C@H]1O (single isomer, unassigned; isomer b) [APPCCl2P-α-S (isomer B), adenosine 5′-[Pα-thio]-β,γ-(dichloromethylene)triphosphate]
times more potent than ATP at the P2Y11 receptor (human P2Y11-R): 2 fold
Hydrolysis by NTPDase2 (human NTPDase2 [1]; listed as APPCCl2P-α-S B): 5.5%
Hydrolysis by NTPDase8 (human NTPDase8 [2]; listed as APPCCl2P-α-S B): 5.3%
effect on human NTPDase2 activity (human NTPDase2 [3]; listed as APPCCl2P-α-S B): 12.7 ± 0.5%
inhibition of the hydrolysis of ATP by NTPDase2 (human NTPDase2 [3]): did not interfere
effect on human NTPDase8 activity (human NTPDase8 [4]; listed as APPCCl2P-α-S B): 1.5 ± 0.06%
inhibition of the hydrolysis of ATP by NTPDase8 (human NTPDase8 [4]): did not interfere
Hydrolysis by NTPDase1 (human NTPDase1; listed as APPCCl2P-α-S B): 5.4%
Hydrolysis by NTPDase3 (human NTPDase3; listed as APPCCl2P-α-S B): 5.4%

Nc1ncnc2c1ncn2[C@@H]1O[C@H](COP(O)(=S)OP(=O)(O)C(Cl)(Cl)P(=O)(O)O)[C@@H](O)[C@H]1O (single isomer, unassigned) [APPCCl2P-α-S, adenosine 5′-[Pα-thio]-β,γ-(dichloromethylene)triphosphate]
EC50 (human P2Y11-R): > 10 µM

di-adenosine-5′,5″-tetrathiobisphosphonate
Relative hydrolysis by NTPDase8 (human NTPDase8 [2]): 3.0 ± 0.1 % ± SD of ADP or AP2A hydrolysis
inhibition of the hydrolysis of ATP by NTPDase2 (human NTPDase2 [3]): 5-20%
inhibition of the hydrolysis of ATP by NTPDase8 (human NTPDase8 [4]): 5-20%
Relative hydrolysis by NTPDase3 (human NTPDase3): 2.0 ± 0.1 % ± SD of ADP or AP2A hydrolysis

Nc1ncnc2c1ncn2[C@@H]1O[C@H](COP(O)(=S)OP(=O)(O)CP(=O)(O)O)[C@@H](O)[C@H]1O (single isomer, unassigned; isomer a) [APPCP-α-S (isomer A), adenosine 5′-[Pα-thio]-β,γ-methylenetriphosphate]
agonism at the P2Y11-receptor (human P2Y11-R): not an agonist
Hydrolysis by NTPDase2 (human NTPDase2 [1]; listed as APPCP-α-S A): 4.7%
Hydrolysis by NTPDase8 (human NTPDase8 [2]; listed as APPCP-α-S A): 4.4%
effect on human NTPDase2 activity (human NTPDase2 [3]; listed as APPCP-α-S A): 16.3 ± 0.6%
inhibition of the hydrolysis of ATP by NTPDase2 (human NTPDase2 [3]): did not interfere
effect on human NTPDase8 activity (human NTPDase8 [4]; listed as APPCP-α-S A): 7.0 ± 0.3%
inhibition of the hydrolysis of ATP by NTPDase8 (human NTPDase8 [4]): did not interfere
Hydrolysis by NTPDase1 (human NTPDase1; listed as APPCP-α-S A): 4.4%
Hydrolysis by NTPDase3 (human NTPDase3; listed as APPCP-α-S A): 4.2%

adenosine-5′-tetrathiobisphosphonate
Relative hydrolysis by NTPDase2 (human NTPDase2 [1]): 1 ± 0.2 % ± SD of ADP or AP2A hydrolysis
Relative hydrolysis by NTPDase8 (human NTPDase8 [2]): 7 ± 1 % ± SD of ADP or AP2A hydrolysis
inhibition of the hydrolysis of ATP by NTPDase2 (human NTPDase2 [3]): 42%
inhibition of the hydrolysis of ATP by NTPDase8 (human NTPDase8 [4]): 49%
Relative hydrolysis by NTPDase1 (human NTPDase1): 1 ± 0.2 % ± SD of ADP or AP2A hydrolysis

Nc1ncnc2c1ncn2[C@@H]1O[C@H](COP(=O)(O)OP(O)(O)=S)[C@@H](O)[C@H]1O [ADP-β-S, adenosine 5′-[β-thio]diphosphate, reference compound]
Relative hydrolysis by NTPDase8 (human NTPDase8 [2]): 14 ± 0.1 % ± SD of ADP or AP2A hydrolysis
inhibition of the hydrolysis of ATP by NTPDase2 (human NTPDase2 [3]): less than 50%
inhibition of the hydrolysis of ATP by NTPDase8 (human NTPDase8 [4]): less than 50%
Relative hydrolysis by NTPDase3 (human NTPDase3): 2 ± 0.1 % ± SD of ADP or AP2A hydrolysis
